One molecule from PMC10975012, “The Active Glucuronide Metabolite of the Brain Protectant IMM-H004 with Poor Blood–Brain Barrier Permeability Demonstrates a High Partition in the Rat Brain via Multiple Mechanisms” (Pharmaceutics, 2024) can be followed below.

What all share (assay type): cell-based
In one data set the target is T1, OATP1A2 (Homo sapiens, UniProt P46721).
T1 construct: host or cells: CHO
T1 sequence (P46721 1-670): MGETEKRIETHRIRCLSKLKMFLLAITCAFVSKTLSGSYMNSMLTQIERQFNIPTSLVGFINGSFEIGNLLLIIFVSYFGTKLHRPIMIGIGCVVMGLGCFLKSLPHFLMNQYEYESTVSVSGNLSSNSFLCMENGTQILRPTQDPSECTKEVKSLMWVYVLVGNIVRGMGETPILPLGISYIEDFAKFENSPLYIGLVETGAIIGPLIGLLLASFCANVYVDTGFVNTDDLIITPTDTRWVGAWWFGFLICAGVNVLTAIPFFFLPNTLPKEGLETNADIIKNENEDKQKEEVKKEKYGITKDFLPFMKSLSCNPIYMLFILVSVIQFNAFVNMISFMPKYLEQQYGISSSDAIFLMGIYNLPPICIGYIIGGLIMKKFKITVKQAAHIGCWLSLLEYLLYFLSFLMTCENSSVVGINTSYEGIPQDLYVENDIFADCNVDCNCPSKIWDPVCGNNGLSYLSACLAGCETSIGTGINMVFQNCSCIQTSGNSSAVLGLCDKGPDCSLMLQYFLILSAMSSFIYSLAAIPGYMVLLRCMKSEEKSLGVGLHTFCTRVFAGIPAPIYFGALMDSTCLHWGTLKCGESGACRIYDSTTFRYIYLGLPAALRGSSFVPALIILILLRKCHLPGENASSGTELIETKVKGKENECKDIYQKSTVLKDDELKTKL
The experiment in a line: Uptake in CHO-OATP1A2 overexpressing cells. The following applies: CHO-OATP1A2 vs mock, 10 min; IMM-H004G 10 μmol/L. The source says: CHO cells and MDCKⅡ cells were stably transfected with lentiviruses carrying human SCLO1A2 (encoding OATP1A2) and SCLO2B1 (encoding OATP2B1), respectively. Cell transfected with lentiviruses carrying empty vectors served as control. Lentiviral plasmid packages were obtained from OBiO Technology (Shanghai, China), and procedures followed the instructions of the virus manual. Stably transfected cells were routinely grown in a 100 mm dish in DMEM with 10% fetal bovine serum. Prior to the experiments, the seeding density of the overexpressing cells in 24-well plates was 4 × 10^5 cells per well, and the medium was supplemented with 2 mM sodium butyrate for 24 h. The cultured cells were washed twice with prewarmed HBSS after removing the medium and then treated with 10 μmol/L IMM-H004G and 100 μmol/L rifampicin (or an equal amount of solvent dimethyl sulfoxide) for 10 min. After incubation, the cells were washed four times with cold HBSS. Follow-up sample processing procedures were as described in Section 2.3.1. E17βG (5 μmol/L) and rosuvastatin (10 μmol/L) were used as positive substrates in CHO-OATP1A2 and MDCKⅡ-OATP2B1 cells, respectively. The MDCKⅡ-MDR1 cells were previously established by our laboratory.

A further data set addresses T2, OATP1B1 (Homo sapiens, UniProt Q9Y6L6).
T2 construct: expressed in transfected cells; host or cells: MDCKII
T2 sequence (Q9Y6L6 1-691): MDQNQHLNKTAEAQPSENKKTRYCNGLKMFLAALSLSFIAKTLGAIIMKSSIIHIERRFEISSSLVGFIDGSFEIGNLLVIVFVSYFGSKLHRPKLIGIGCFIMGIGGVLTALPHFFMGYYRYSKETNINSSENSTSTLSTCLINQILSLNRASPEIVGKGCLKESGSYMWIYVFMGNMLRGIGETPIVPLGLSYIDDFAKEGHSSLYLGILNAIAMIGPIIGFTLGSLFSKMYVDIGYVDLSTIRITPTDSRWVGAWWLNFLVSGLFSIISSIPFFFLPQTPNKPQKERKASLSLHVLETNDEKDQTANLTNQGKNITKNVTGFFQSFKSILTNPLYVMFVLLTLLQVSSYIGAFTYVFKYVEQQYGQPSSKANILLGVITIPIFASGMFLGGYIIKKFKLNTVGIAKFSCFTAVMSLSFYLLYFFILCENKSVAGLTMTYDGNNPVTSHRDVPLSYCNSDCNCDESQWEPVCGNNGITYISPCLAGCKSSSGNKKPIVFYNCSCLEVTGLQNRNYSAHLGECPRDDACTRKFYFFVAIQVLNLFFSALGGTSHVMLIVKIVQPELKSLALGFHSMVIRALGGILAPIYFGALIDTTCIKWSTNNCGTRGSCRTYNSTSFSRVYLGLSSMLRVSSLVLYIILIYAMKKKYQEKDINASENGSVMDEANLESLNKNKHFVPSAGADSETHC
The experiment in a line: Uptake in MDCKⅡ-OATP1B1 cells. The following applies: MDCKⅡ-OATP1B1, 30, 60 µmol/L, 20 or 40 min. The protocol: (§1) Figure S4 Uptake of IMM-H004G in MDCKⅡ-OATP1B1 and MDCKⅡ-OATP1B3 cells. (a)
(§2) RSV (rosuvastatin, 30 µmol/L) is used as a positive group in MDCKⅡ-OATP1B1 cells. (b)
(§3) E17βG (estradiol-17β-glucuronide, 5 µmol/L) is used as a positive group in
(§4) MDCKⅡ-OATP1B3 cells. (c) IMM-H004G (30, 60 µmol/L) was incubated with
(§5) MDCKⅡ-OATP1B1 and MDCKⅡ-OATP1B3 cells for 20 or 40 min. The OATP
(§6) pan-inhibitor CsA (cyclosporin A) is 10 µmol/L. n=3 for positive substrates, and n=2 for
(§7) IMM-H004G. ***p < 0.001, **p < 0.01, *p < 0.05 vs. control group. ns, not significant.
(§8) (1 picture or pasted object on this page, not shown here)

For a further data set, the target named is T3, OATP1B3 (Homo sapiens, UniProt Q9NPD5).
T3 construct: expressed in transfected cells; host or cells: MDCKII
T3 sequence (Q9NPD5 1-702): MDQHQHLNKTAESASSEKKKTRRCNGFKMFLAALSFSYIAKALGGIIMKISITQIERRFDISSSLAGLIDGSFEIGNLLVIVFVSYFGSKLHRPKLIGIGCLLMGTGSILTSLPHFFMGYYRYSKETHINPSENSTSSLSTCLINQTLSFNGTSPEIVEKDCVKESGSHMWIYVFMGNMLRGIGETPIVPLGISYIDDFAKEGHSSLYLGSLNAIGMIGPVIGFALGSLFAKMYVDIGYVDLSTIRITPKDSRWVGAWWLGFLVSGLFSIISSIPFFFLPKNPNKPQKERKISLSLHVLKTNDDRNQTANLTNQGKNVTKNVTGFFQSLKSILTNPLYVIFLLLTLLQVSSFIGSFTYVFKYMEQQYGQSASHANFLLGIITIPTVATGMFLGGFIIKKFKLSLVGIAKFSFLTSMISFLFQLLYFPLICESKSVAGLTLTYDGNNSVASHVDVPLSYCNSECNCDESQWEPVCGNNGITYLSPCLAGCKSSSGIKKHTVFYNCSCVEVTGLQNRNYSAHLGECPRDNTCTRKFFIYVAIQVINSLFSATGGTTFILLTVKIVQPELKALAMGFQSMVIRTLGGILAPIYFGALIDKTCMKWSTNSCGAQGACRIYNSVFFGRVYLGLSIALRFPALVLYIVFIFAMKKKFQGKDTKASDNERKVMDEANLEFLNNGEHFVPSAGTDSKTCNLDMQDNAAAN
The experiment in a line: Uptake in MDCKⅡ-OATP1B3 cells. The following applies: MDCKⅡ-OATP1B3, 30, 60 µmol/L, 20 or 40 min. The protocol: as §1, §2, §3, §4, §5, §6, §7, §8

Regarding `COc1cc(OC2OC(C(=O)O)C(O)C(O)C2O)cc2oc(=O)c(N3CCN(C)CC3)c(C)c12` (stereo not drawn) [IMM-H004G], the “uptake increase in OATP1A2-overexpressing cells compared to control cells” value at OATP1A2 is 9.7 fold. Moreover, on OATP1B1, the “uptake increase in OATP1B1-overexpressing cells compared to control cells” value is “did not exceed a tenfold increase”. Moreover, the “uptake increase in OATP1B3-overexpressing cells compared to control cells” value on OATP1B3 is “did not exceed a tenfold increase”.
